Test results as given in paper PMC4428793, “MK571 inhibits phase-2 conjugation of flavonols by Caco-2/TC7 cells, but does not specifically inhibit their apical efflux^” (Biochemical Pharmacology, 2015).

Legend:
Caco-2/TC7 cell lysate = assay: Flavonol conjugate production by Caco-2/TC7 cell free lysate, effect of MK571; type: biochemical, human; conditions: aglycone 40 μM; for Change in rate (%): MK571 50 μM vs control; for Rate +MK571 (conjugate production): MK571 50 μM; for Rate +MK571 (conjugate production) / Rate control (conjugate production): slope (standard error of the slope); for Rate control (conjugate production): no MK571
Procedure: Cells were grown until 21 days post confluent and washed and aspirated as described previously. The cells were then scraped into tubes and these tubes kept on ice at all times throughout the preparation procedure. Homogenisation buffer comprised of sodium phosphate buffer (50 mM adjusted to pH 6.5; 20 mL), two mini protease inhibitor cocktail tablets containing EDTA and perfabloc, dithiothreitol (30.8 mg), alamethacin (20 μL of a 22 μg/mL) solution from T. viride; and MgCl2 (3.5 mg). Cell-free homogenates were prepared by mixing cells with homogenisation buffer (50:50, vol/vol) and vortexing with glass beads in an eppendorf tube three times for 1 min over a 10 min period. To 900 μL of cell free lysate was added 10 μL uridine 5′-diphosphoglucuronic acid (4 mM final concentration) with uridine 5′-diphospho-N-acetyl-glucosamine (dissolved in homogenisation buffer, 2 mM final concentration); 10 μL MK571 (50 mmol/L stock diluted 1:9 with homogenisation buffer) or 10 μL dimethyl sulfoxide blank (diluted 1:9 with homogenisation buffer). The tubes were allowed to warm and once they reached 37 °C, the flavonols were added at the relevant concentration (kaempferol, quercetin or galangin; 10 mmol/L stock in dimethyl sulfoxide diluted 1:1 with homogenisation buffer, plus homogenisation buffer added to create a final volume of 1000 μL) and the tube vortexed briefly. The experiment was stopped by addition of a mixture of 50 μL trifluoracetic acid and 50 μL acetonitrile. Samples were then centrifuged for 10 min at 14,000 × g. The supernatant was removed and analysed via HPLC.

Caco-2/TC7 cells = assay: Flavonol metabolism and transport experiments on Caco-2/TC7 transwell monolayers, effect of MK571; type: cell-based, human; conditions: apical to basolateral ratio of efflux of the conjugate, 60 min, 12-well transwells
Procedure: Cells were grown at 37 °C in a humidified incubator with 5% CO2 in Dulbecco Modified Eagle's Medium (DMEM) containing 1% non-essential amino acids, 1% L-glutamine, 100 IU/mL penicillin and 100 μg/mL streptomycin, 1 g/L glucose, and supplemented with 20% (v/v) heat inactivated fetal calf serum. Cells were passaged at 80% confluency, and seeded at 2–4 × 10^4 cells per cm^2 on 10 cm dishes (growing area 75 cm^2) or 12-well transwells (growing area of 1.1 cm^2). […] Toxicity of MK571 on Caco-2/TC7 cell monolayers was determined through comparison of pre- and post-loading TEER values of wells incubated with MK571.
Flavonol stocks (quercetin, kaempferol, galangin; 10 mM) were prepared in dimethylsulfoxide (DMSO) and stored at −20 °C. MK571 was dissolved in dimethyl sulfoxide (10 mM final concentration) and stored at −20 °C. Prior to the metabolism or transport experiments, cells were aspirated of media and washed three times with phosphate buffered saline (PBS). To foetal calf serum and phenol red-free DMEM was added ascorbic acid at a final concentration of 100 μM as well as MK571 at the desired concentration. For metabolism experiments, 10 mL of this media was added to the cells in 10 cm dishes. For transport experiments using transwells, 0.6 mL of this media was added to the apical compartment of the transwell and 1 mL was added to the basolateral compartment. Control wells received an equivalent dose of dimethyl sulfoxide as the treatment wells. Cells were incubated at 37 °C for 30 min, after which flavonols dissolved in dimethyl sulfoxide (kaempferol, galangin or quercetin) were added to the media of treatment wells at a final concentration of 40 or 100 μM, while control wells were treated with the dimethyl sulfoxide vehicle alone. Concentrations of quercetin were increased to 100 μM because instability of quercetin in media necessitated higher initial loading to maintain adequate cellular and media concentrations for uptake and metabolism of the flavonol. Control and treatment cells were incubated at 37 °C for the periods indicated in the results.
Following the required incubation period, media and cell fractions were harvested and analysed to identify and quantify flavonol metabolites using HPLC. Media was removed from the apical (0.5 mL) and basolateral (0.5 mL) compartments of transwells and added to 25 μL trifluoroacetic acid and 25 μL HPLC grade acetonitrile. Media from 10 cm dishes (1 mL) was removed and added to 50 μL trifluoroacetic acid and 25 μL HPLC grade acetonitrile. Cells were washed three times with cold (room temperature) phosphate buffered saline solution and scraped free of the dish surface. For transwells, 100 μL MilliQ water was added to the cells and the resulting cell suspension pipetted into 10 μL trifluoroacetic acid and 10 μL HPLC grade acetonitrile. For 10 cm dishes, the resulting cell suspension was pipetted into 25 μL trifluoroacetic acid and 25 μL HPLC grade acetonitrile. Samples were either analysed immediately or otherwise stored at −20 °C prior to HPLC analysis. Flavonols were stable during frozen storage and thawing (no significant losses up to 26 weeks).
Media samples were thawed where necessary and then mixed using a vortex mixer, centrifuged for 10 min at 14,000 × g using a micro centrifuge, and the supernatant removed and placed in an HPLC vial for analysis. Cell samples were vortex-mixed and then ultra-sonicated (sonic water bath) for 10 min, vortex mixed again and then centrifuged for 10 min at 14,000 × g using a micro-centrifuge, before removal of supernatant for HPLC analysis. Identification and quantification of individual flavonol metabolites was carried out using liquid chromatography–mass spectrometry and nuclear magnetic resonance analyses, as described previously. […]

Compound | Rate +MK571 (conjugate production) (Caco-2/TC7 cell lysate) | Rate control (conjugate production) (Caco-2/TC7 cell lysate) | Ap:Bl ratio (50 μM MK571) (Caco-2/TC7 cells) | Ap:Bl ratio (No MK571) (Caco-2/TC7 cells) | Ap:Bl ratio (100 μM MK571) (Caco-2/TC7 cells) | Change in rate (%) (Caco-2/TC7 cell lysate)
O=C(O)[C@H]1O[C@@H](Oc2c(-c3ccc(O)cc3)oc3cc(O)cc(O)c3c2=O)[C@H](O)[C@@H](O)[C@@H]1O [K-3-GlcA, kaempferol-3-glucuronide] | 1.40 (±0.08) pmol/h | 1.73 (±0.16) pmol/h | – | – | – | −19.3%
galangin sulphate [G-S] | – | – | 9.10 (±0.783) | 13.6 (±1.440) | – | –
O=C(O)[C@H]1O[C@@H](Oc2c(-c3ccccc3)oc3cc(O)cc(O)c3c2=O)[C@H](O)[C@@H](O)[C@@H]1O [G-3-GlcA, galangin-3-glucuronide] | 25.3 (±2.30) pmol/h | 68.8 (±6.12) pmol/h | 0.35 (±0.091) | 0.24 (±0.033) | – | −63.2%
O=C(O)C1OC(Oc2cc(O)cc3oc(-c4ccccc4)c(O)c(=O)c23)C(O)C(O)C1O (centres unmarked) [G-5-GlcA] | – | – | 0.30 (±0.024) | 0.19 (±0.020) | – | –
O=C(O)[C@H]1O[C@@H](Oc2cc(O)c3c(=O)c(O)c(-c4ccccc4)oc3c2)[C@H](O)[C@@H](O)[C@@H]1O [G-7-GlcA, galangin-7-glucuronide] | 19.8 (±1.63) pmol/h | 36.5 (±1.49) pmol/h | 0.51 (±0.036) | 0.54 (±0.058) | – | −45.7%
O=C(O)[C@H]1O[C@@H](Oc2ccc(-c3oc4cc(O)cc(O)c4c(=O)c3O)cc2)[C@H](O)[C@@H](O)[C@@H]1O [K-4′-GlcA, kaempferol-4′-glucuronide] | – | – | 0.33 (±0.080) | 0.26 (±0.066) | 0.43 (±0.018) | –

Now from value to compound, other results behind:

Rate +MK571 (conjugate production) (Caco-2/TC7 cell lysate) | Rate control (conjugate production) (Caco-2/TC7 cell lysate) | Ap:Bl ratio (50 μM MK571) (Caco-2/TC7 cells) | Ap:Bl ratio (No MK571) (Caco-2/TC7 cells) | Ap:Bl ratio (100 μM MK571) (Caco-2/TC7 cells) | Compound | Change in rate (%) (Caco-2/TC7 cell lysate)
0.28 (±0.03) pmol/h | 0.25 (±0.01) pmol/h | 0.25 (±0.035) | 0.23 (±0.034) | – | O=C(O)[C@H]1O[C@@H](Oc2ccc(-c3oc4cc(O)cc(O)c4c(=O)c3O)cc2O)[C@H](O)[C@@H](O)[C@@H]1O [Q-4′-GlcA] | +12.1%
0.69 (±0.02) pmol/h | 1.12 (±0.09) pmol/h | 0.35 (±0.063) | 0.28 (±0.044) | 0.44 (±0.021) | O=C(O)[C@H]1O[C@@H](Oc2cc(O)c3c(=O)c(O)c(-c4ccc(O)cc4)oc3c2)[C@H](O)[C@@H](O)[C@@H]1O [K-7-GlcA, kaempferol-7-glucuronide] | −38.2%
0.34 (±0.02) pmol/h | 0.54 (±0.04) pmol/h | 0.42 (±0.121) | 0.59 (±0.174) | 0.43 (±0.028) | kaempferol-sulfo-glucuronide [K-S-GlcA] | –
0.83 (±0.14) pmol/h | 1.05 (±0.09) pmol/h | – | – | – | O=C(O)[C@H]1O[C@@H](Oc2c(-c3ccc(O)c(O)c3)oc3cc(O)cc(O)c3c2=O)[C@H](O)[C@@H](O)[C@@H]1O [Q-3-GlcA] | −21.8%
– | – | 3.92 (±0.646) | 3.02 (±0.230) | 0.14 (±0.006) | kaempferol sulphate [K-S] | –
1.29 (±0.26) pmol/h | 1.89 (±0.16) pmol/h | – | – | – | O=C(O)[C@H]1O[C@@H](Oc2cc(O)c3c(=O)c(O)c(-c4ccc(O)c(O)c4)oc3c2)[C@H](O)[C@@H](O)[C@@H]1O [Q-7-GlcA] | −31.8%
2.62 (±0.24) pmol/h | 2.09 (±0.12) pmol/h | 100% apical | 100% apical | – | O=C(O)[C@H]1O[C@@H](Oc2cc(-c3oc4cc(O)cc(O)c4c(=O)c3O)ccc2O)[C@H](O)[C@@H](O)[C@@H]1O [Q-3′-GlcA] | +25.6%
